10 compounds from patent US5089516A, “1-phenyl-3,5-pyrazolidinedione hydroxystyrene compounds which have tyrosine kinase inhibiting activity” (Kanegafuchi Kagaku Kogyo Kabushiki Kaisha, priority 1987, dated 1992) can be followed below.

SMILES strings stand for the structures. ≈ marks a conversion by molar mass, not a printed value. Bounds are passed on as bounds.

Assay [1] relates to Micrococcus luteus IFO 13867. The assay can be described thus: Antibacterial activity (MIC) against Micrococcus luteus IFO 13867. Format: cell-based. Conditions: IFO13867, 37° C., 18 to 20 hours. How it is done:
(§1) The antibacterial activity against Gram-positive bacteria of the compound of the present invention was measured according to a standard method of Nippon Kagaku Ryoho Gakkai [Nippon Kagaku Ryoho Gakkaishi (Journal of the Chemical therapy of Japan), 29, 76(1981)].
(§2) As for gram-positive bacteria, after cultivation in Meuller Hinton broth medium (made by Difco Co., Ltd.), there was prepared a bacterial suspension for inoculation containing about 10^6 of the bacteria per 1 ml of the Meuller Hinton broth medium. On the other hand, the test compound was added to Mueller Hinton agar medium (made by Difco Co., Ltd.) so as to give agar plate medium containing test samples which are twofold serial diluted. Then, the above-mentioned bacterial suspension for inoculation was streaked to each agar medium for about 2 cm with a looped nichrome wire (inner diameter: about 1 mm).
(§3) After that the each agar plate medium was cultured at 37° C. for 18 to 20 hours, the growth of the test bacteria was determined.

Assay [2] deals with Staphylococcus aureus IFO 12732. The experiment in a line: Antibacterial activity (MIC) against Staphylococcus aureus IFO 12732. The assay is classed as cell-based. Conditions: IFO12732, 37° C., 18 to 20 hours. How it is done:
as §1, §2, §3

Assay [3] concerns Nycobacterium smegmatis ATCC 607. The assay can be described thus: Antibacterial activity (MIC) against acid-fast bacteria. The note with it: 37° C., 40 to 42 hours. The assay is classed as cell-based. As for the experimental part:
As for acid-fast bacteria, after cultured in glycerol broth medium, there was prepared a bacterial suspension for inoculation containing about 10^6 of the bacteria per 1 ml of the medium. On the other hand, there were prepared some glycerol Czapek agar plating media with adding the test compounds, and thereto the bacterial suspension for inoculation was streaked.

Assay [4] concerns antigen-induced anaphylactic shock death. The experiment in a line: Protecting effect against antigen-induced anaphylactic shock death in actively sensitized guinea pigs. Conditions: Cavia porcellus, 1.5 h, oral, 30 minutes before antigen inhalation. Format: in vivo, male guinea pigs. How it is done: (2) Protecting effect against antigen-induced anaphylactic shock death in actively sensitized guinea pigs
Anaphylactic shock death caused by inhalation of antigen was observed according to John P. Devlin Pulmonary and Antiallergic Drugs, John Wiley & Sons, (1985)] employing actively sensitized guinea pigs.
Each 100 mg/kg of body weight ovalbumin dissolved in physiological saline was injected into gluteus and into peritoneal cavity of male guinea pigs weighing 250 to 350 g. Three days later, the animals were further injected intraperitoneally with ovalbumin (100 mg/kg body weight) to conduct booster. Those animals were employed for testing 3 to 4 weeks after the sensitization.
In each group, 4 or more actively sensitized guinea pigs were pretreated by subcutaneously injecting pyrilamine (1 mg/kg body weight) 30 minutes before antigen inhalation to suppress histamine-dependent response and propranolol (1 mg/kg body weight) to enhance the response induced by other than histamine 10 minutes before the antigen inhalation.
The animal was placed in a desiccator with a capacity of about […] and 0.5% aqueous solution of ovalbumin in the state of aerosol was inhaled with ultrasonic type nebulizer for five minutes. Anaphylactic shock death was observed and the animals survived for 90 minutes or more after antigen inhalation were estimated to be protected. All the animals of the control group died due to anaphylactic shock. The compounds of the present invention and therapeutic antiasthmatic agent (tranilast, theophylline) were administered orally 30 minutes before the antigen inhalation.

With `O=C1NC(=S)SC1=Cc1cc(Cc2ccccc2)c(O)c(Cc2ccccc2)c1` [Compound 2], the figures for the MIC in assay [1] and in assay [2] were at most 6 µg/mL and 12 µg/mL (≈ 28.7 µM), respectively.

As for `O=C1Nc2ccccc2C1=Cc1cc(O)c(O)c(CSc2ccccc2)c1` [Compound 11], the MIC in assay [1] was 12 µg/mL (≈ 32 µM); in assay [2], 25 µg/mL (≈ 66.6 µM).

In the case of `O=C1NN(c2ccccc2)C(=O)C1=Cc1cc(Cc2ccccc2)c(O)c(Cc2ccccc2)c1` [Compound 20], the minimal inhibitory concentration (MIC) is at most 50 µg/mL in assay [1] and 100 µg/mL (≈ 217 µM) in assay [2].

`O=C1N=C(NCc2cccs2)SC1=Cc1cc(CSc2ccccc2)c(O)c(OCc2ccccc2)c1` [Compound 31]: the MIC in assay [3] is at most 6 µg/mL.

Turning to `CC(C)c1cc(C=C2SC(NCc3ccccc3)=NC2=O)cc(C(C)C)c1O` [Compound 33], the minimal inhibitory concentration (MIC) in assay [3] is at most 15 µg/mL.

The compound `CC(C)c1cc(C=C2SC(NCc3ccc(F)cc3)=NC2=O)cc(C(C)C)c1O` [Compound 35] displayed an MIC in assay [3] of 15 µg/mL (≈ 36.4 µM). Moreover, the responders at 10 mg/kg in assay [4] was 50%.

Take `CC(C)c1cc(C=C2SC(NCc3ccc(Cl)c(Cl)c3)=NC2=O)cc(C(C)C)c1O` [Compound 37]: the responders at 100 mg/kg in assay [4] is 25%.

In the case of `Cc1ccc(CNC2=NC(=O)C(=Cc3cc(C(C)C)c(O)c(C(C)C)c3)S2)cc1` [Compound 39], in assay [4], the responders at 100 mg/kg is 25%.

Regarding `CC(C)c1cc(C=C2SC(NCc3ccc(S(N)(=O)=O)cc3)=NC2=O)cc(C(C)C)c1O` [Compound 41], the results for the minimal inhibitory concentration (MIC) in assay [3] and in assay [2] were 25 µg/mL (≈ 52.8 µM) and 50 µg/mL (≈ 106 µM), respectively. The responders at 10 mg/kg in assay [4] was 25%.

Turning to `CC(C)c1cc(C=C2SC(NCc3ccc(N)cc3)=NC2=O)cc(C(C)C)c1O` [Compound 42], the MIC in assay [3] was at most 15 µg/mL.
